Results taken from patent US20250129078A1, “ERBB2 INHIBITORS” (Cogent Biosciences, Inc., priority 2023, published 2025).
Structures can show the parent of a compound that is named as a salt.

Experiments:
ErbB2 V777L = ErbB2 V777L (Homo sapiens (Human), UniProt P04626, V777L); test: ErbB enzyme assay (CisBio HTRF-KinEASE-TK), ErbB2 V777L; format: biochemical
Experimental: In vitro enzyme assays based on CisBio HTRF-KinEASE-TK technology were used to determine compound potencies. […] After another 1 h incubation at ambient temperature, the extent of substrate phosphorylation was determined using a PerkinElmer EnVision multimode plate reader via time-resolved fluorescence dual wavelength detection. The percent of control (POC) was calculated using the ratio of emission at […] to the emission at 620 nm. One hundred POC was determined using DMSO only controls (no test compounds present) and zero POC was determined using pre-quenched controls reactions. A 4-parameter logistic equation was fit to the POC values as a function of the test compound concentration and the IC50 value was determined as the point where the curve crossed 50 POC.

EGFR WT = EGFR WT (Homo sapiens (Human), UniProt P00533); test: ErbB enzyme assay (CisBio HTRF-KinEASE-TK), EGFR WT; format: biochemical; details: ATP at Km (25 μM), 1 h incubation
Chain of EGFR WT (P00533 25-1210): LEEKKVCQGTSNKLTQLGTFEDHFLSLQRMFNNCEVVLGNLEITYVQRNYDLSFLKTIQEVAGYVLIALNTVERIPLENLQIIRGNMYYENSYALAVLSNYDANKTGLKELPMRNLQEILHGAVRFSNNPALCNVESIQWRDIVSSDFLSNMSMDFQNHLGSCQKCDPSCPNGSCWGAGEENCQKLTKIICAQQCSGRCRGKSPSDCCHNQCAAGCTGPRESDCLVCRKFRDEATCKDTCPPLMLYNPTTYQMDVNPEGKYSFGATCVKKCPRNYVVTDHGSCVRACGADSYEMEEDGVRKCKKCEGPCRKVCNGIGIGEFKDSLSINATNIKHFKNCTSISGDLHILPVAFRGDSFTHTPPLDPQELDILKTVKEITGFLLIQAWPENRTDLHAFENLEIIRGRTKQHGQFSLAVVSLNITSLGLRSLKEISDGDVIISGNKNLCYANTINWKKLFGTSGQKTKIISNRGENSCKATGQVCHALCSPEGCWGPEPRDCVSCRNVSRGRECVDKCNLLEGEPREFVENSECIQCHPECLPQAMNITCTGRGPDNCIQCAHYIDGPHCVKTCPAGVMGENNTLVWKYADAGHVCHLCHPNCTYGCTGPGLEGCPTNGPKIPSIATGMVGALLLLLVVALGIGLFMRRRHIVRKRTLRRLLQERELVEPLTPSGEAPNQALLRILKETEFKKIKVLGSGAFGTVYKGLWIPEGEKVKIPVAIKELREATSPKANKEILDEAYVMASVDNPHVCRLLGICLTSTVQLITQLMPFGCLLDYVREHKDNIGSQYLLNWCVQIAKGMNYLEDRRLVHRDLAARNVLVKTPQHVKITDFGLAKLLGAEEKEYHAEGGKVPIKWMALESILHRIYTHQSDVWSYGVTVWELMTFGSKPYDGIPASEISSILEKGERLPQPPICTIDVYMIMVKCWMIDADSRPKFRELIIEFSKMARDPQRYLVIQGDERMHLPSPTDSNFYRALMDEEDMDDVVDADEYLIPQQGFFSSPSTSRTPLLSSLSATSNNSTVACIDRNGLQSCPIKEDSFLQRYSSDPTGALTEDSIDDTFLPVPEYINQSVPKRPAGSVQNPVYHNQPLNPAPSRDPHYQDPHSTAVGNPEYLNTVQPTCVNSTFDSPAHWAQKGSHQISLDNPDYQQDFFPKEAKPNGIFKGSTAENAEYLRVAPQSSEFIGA
Outline: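 Potency comes from a homogeneous time-resolved fluorescence kinase format measuring tyrosine substrate phosphorylation. Reactions and detection steps each run 1 h at ambient temperature. IC50 values are interpolated from 4-parameter logistic fits of percent-of-control data.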

Chain of ErbB2 V777L (P04626 23-1255 V777L): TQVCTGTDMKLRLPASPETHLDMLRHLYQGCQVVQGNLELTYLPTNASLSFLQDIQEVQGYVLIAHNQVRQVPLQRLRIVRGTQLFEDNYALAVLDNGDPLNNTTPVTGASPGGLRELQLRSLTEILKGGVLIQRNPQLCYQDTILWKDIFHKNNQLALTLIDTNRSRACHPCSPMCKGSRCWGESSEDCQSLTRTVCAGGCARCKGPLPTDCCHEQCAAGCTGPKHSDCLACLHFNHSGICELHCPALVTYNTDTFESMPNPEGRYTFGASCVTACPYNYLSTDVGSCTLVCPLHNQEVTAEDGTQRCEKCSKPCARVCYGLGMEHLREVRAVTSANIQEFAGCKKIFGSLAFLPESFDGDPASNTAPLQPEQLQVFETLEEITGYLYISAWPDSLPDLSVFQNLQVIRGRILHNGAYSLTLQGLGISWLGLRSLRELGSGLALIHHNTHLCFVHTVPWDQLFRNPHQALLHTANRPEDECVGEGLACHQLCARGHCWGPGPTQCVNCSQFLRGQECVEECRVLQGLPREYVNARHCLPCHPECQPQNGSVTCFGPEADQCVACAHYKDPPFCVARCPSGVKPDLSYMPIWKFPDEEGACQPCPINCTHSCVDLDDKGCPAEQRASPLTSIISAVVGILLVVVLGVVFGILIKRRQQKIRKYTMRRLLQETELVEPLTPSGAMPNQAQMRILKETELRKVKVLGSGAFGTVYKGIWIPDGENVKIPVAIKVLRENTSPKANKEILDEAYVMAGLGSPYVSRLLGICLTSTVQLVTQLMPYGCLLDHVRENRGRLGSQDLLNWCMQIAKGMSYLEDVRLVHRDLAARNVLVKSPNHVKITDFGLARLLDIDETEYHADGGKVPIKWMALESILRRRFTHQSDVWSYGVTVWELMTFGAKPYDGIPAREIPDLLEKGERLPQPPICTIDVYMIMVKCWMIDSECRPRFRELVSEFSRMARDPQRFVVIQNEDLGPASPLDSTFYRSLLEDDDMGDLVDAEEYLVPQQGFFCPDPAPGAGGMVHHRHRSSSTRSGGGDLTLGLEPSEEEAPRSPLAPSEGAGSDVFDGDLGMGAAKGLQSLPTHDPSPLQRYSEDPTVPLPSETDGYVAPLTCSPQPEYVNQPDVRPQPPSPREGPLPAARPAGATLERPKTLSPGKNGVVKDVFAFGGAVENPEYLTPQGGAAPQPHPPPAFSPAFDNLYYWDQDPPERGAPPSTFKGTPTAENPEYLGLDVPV

| IC50 (ErbB2 V777L) [nM] | IC50 (EGFR WT) [nM] | Structure (SMILES) |
| --- | --- | --- |
| 100 to 500 | ≥ 1000 | C=CC(=O)N1CC2CN(c3ncc4ncnc(Nc5ccc(Oc6ccc7c(c6)nnn7C)c(C)c5)c4n3)CC2C1 (centres unmarked) [Compound 27, 1-(5-(8-((3-methyl-4-((1-methyl-1H-benzo[d][1,2,3]triazol-5-yl)oxy)phenyl)amino)pyrimido[5,4-d]pyrimidin-2-yl)hexahydropyrrolo[3,4-c]pyrrol-2(1H)-y1)prop-2-en-1-one] |
| 100 to 500 | 100 to 500 | C=CC(=O)N(C)C1CN(c2ncc3ncnc(Nc4ccc(Oc5ccc6c(c5)nnn6C)c(C)c4F)c3n2)C1 [Compound 28, N-(1-(8-((2-fluoro-3-methyl-4-((1-methyl-1H-benzo[d][1,2,3]triazol-5-yl)oxy)phenyl)amino)pyrimido [5,4-d]pyrimidin-2-yl)azetidin-3-yl)-N-methylacrylamide] |
| 100 to 500 | 100 to 500 | C=CC(=O)N1CCN(c2ncc3ncnc(Nc4cc(F)c(Oc5ccc6c(c5)nnn6C)cc4F)c3n2)CC1 [Compound 31, 1-(4-(8-((2,5-difluoro-4-((1-methyl-1H-benzo[d][1,2,3]triazol-5-yl)oxy)phenyl)amino)pyrimido[5,4-d]pyrimidin-2-yl)piperazin-1-yl)prop-2-en-1-one] |
| 100 to 500 | 100 to 500 | C=CC(=O)N1CCN(c2ncc3ncnc(Nc4ccc(Oc5ccc6c(c5)nnn6C)c(C)c4F)c3n2)CC1(C)C [Compound 32, 1-(4-(8-((2-fluoro-3-methyl-4-((1-methyl-1H-benzo[d][1,2,3]triazol-5-yl)oxy)phenyl)amino)pyrimido [5,4-d]pyrimidin-2-yl)-2,2-dimethylpiperazin-1-yl)prop-2-en-1-one] |
| 100 to 500 | ≥ 1000 | C/C=C/C(=O)N1CCN(c2ncc3ncnc(Nc4ccc(Oc5ccc6c(c5)nnn6C)c(C)c4)c3n2)CC1 [Compound 34, (E)-1-(4-(8-((3-methyl-4-((1-methyl-1H-benzo[d][1,2,3]triazol-5-yl)oxy)phenyl)amino)pyrimido [5,4-d]pyrimidin-2-yl)piperazin-1-yl)but-2-en-1-one] |
| 500 to 1000 | ≥ 1000 | C=C(C)C(=O)N1CCN(c2ncc3ncnc(Nc4ccc(Oc5ccc6c(c5)nnn6C)c(C)c4)c3n2)CC1 [Compound 35, 2-methyl-1-(4-(8-((3-methyl-4-((1-methyl-1H-benzo[d][1,2,3]triazol-5-yl)oxy)phenyl)amino)pyrimido [5,4-d]pyrimidin-2-y1)piperazin-1-yl)prop-2-en-1-one] |
| 50 to 100 | 100 to 500 | C=CC(=O)N1CCN(c2ncc3ncnc(Nc4cc(C)c(Oc5ccc6c(c5)ncn6C(F)F)cc4OC)c3n2)CC1 [Compound 37, 1-(4-(8-((4-((1-(difluoromethyl)-1H-benzo[d]imidazol-5-y1)oxy)-2-methoxy-5-methylphenyl)amino)pyrimido[5,4-d]pyrimidin-2-yl)piperazin-1-yl)prop-2-en-1-one 2,2,2-trifluoroacetate] |
| 100 to 500 | 500 to 1000 | C=CC(=O)N1C2CCC1CN(c1ncc3ncnc(Nc4cc(C)c(Oc5ccc6c(c5)ncn6C(F)F)cc4OC)c3n1)C2 [Compound 40, 1-(3-(8-((4-((1-(difluoromethyl)-1H-benzo[d]imidazol-5-yl)oxy)-2-methoxy-5-methylphenyl)amino)pyrimido[5,4-d]pyrimidin-2-yl)-3,8-diazabicyclo[3.2.1]octan-8-yl)prop-2-en-1-one 2,2,2-trifluoroacetate] |
| 100 to 500 | 100 to 500 | C=CC(=O)N1CCN(c2ncc3ncnc(Nc4ccc(Oc5ccc6c(c5)nnn6C)c(OC)c4F)c3n2)CC1 [Compound 45, 1-(4-(8-((2-fluoro-3-methoxy-4-((1-methyl-1H-benzo[d][1,2,3]triazol-5-yl)oxy)phenyl)amino)pyrimido [5,4-d]pyrimidin-2-yl)piperazin-1-yl)prop-2-en-1-one] |
| < 50 | < 50 | C=CC(=O)N1CCN(c2ncc3ncnc(Nc4ccc(Oc5ccc6c(c5)nnn6C)c(C)c4F)c3n2)C2CC21 (centres unmarked) [Compound 48, 1-(5-(8-((2-fluoro-3-methyl-4-((1-methyl-1H-benzo[d][1,2,3]triazol-5-yl)oxy)phenyl)amino)pyrimido[5,4-d]pyrimidin-2-yl)-2,5-diazabicyclo[4.1.0]heptan-2-yl)prop-2-en-1-one] |
| 50 to 100 | < 50 | Cc1cc(Nc2ncnc3cnc(N4CCN(C(=O)/C=C/CN5CCCC5)CC4)nc23)ccc1Oc1ccc2c(c1)nnn2C [Compound 52, (E)-1-(4-(8-((3-methyl-4-((1-methyl-1H-benzo[d][1,2,3]triazol-5-yl)oxy)phenyl)amino)pyrimido [5,4-d]pyrimidin-2-yl)piperazin-1-y169yrrolidineolidin-1-yl)but-2-en-1-one] |
| 100 to 500 | 100 to 500 | Cc1cc(Nc2ncnc3cnc(N4CCN(C(=O)/C=C/CN5CCOCC5)CC4)nc23)ccc1Oc1ccc2c(c1)nnn2C [Compound 53, (E)-1-(4-(8-((3-methyl-4-((1-methyl-1H-benzo[d][1,2,3]triazol-5-yl)oxy)phenyl)amino)pyrimido [5,4-d]pyrimidin-2-yl)piperazin-1-yl)-4-morpholinobut-2-en-1-one formate] |
| 100 to 500 | 500 to 1000 | COC/C=C/C(=O)N1CCN(c2ncc3ncnc(Nc4ccc(Oc5ccc6c(c5)nnn6C)c(C)c4)c3n2)CC1 [Compound 56, (E)-4-methoxy-1-(4-(8-((3-methyl-4-((1-methyl-1H-benzo[d][1,2,3]triazol-5-yl)oxy)phenyl)amino)pyrimido [5,4-d]pyrimidin-2-yl)piperazin-1-yl) but-2-en-1-one] |
| 100 to 500 | 100 to 500 | Cc1cc(Nc2ncnc3cnc(N4CCN(C(=O)/C=C/CO)CC4)nc23)ccc1Oc1ccc2c(c1)nnn2C [Compound 57, (E)-4-hydroxy-1-(4-(8-((3-methyl-4-((1-methyl-1H-benzo[d][1,2,3]triazol-5-yl)oxy)phenyl)amino)pyrimido [5,4-d]pyrimidin-2-yl)piperazin-1-yl)but-2-en-1-one] |
| 50 to 100 | 50 to 100 | Cc1cc(Nc2ncnc3cnc(N4CCN(C(=O)/C=C/CN(C)C)CC4)nc23)ccc1Oc1ccc2c(c1)nnn2C [Compound 58, (E)-4-(dimethyl-amino)-1-(4-(8-((3-methyl-4-((1-methyl-1H-benzo[d][1,2,3]triazol-5-yl)oxy)phenyl)amino)pyrimido [5,4-d]pyrimidin-2-yl)piperazin-1-yl)but-2-en-1-one] |
| 100 to 500 | 100 to 500 | Cc1c(Oc2ccc3c(c2)nnn3C)ccc(Nc2ncnc3cnc(N4CCN(C(=O)/C=C/CN5CC(F)C5)CC4)nc23)c1F [Compound 59, (E)-1-(4-(8-((2-fluoro-3-methyl-4-((1-methyl-1H-benzo[d][1,2,3]triazol-5-yl)oxy)phenyl)amino)pyrimido [5,4-d]pyrimidin-2-yl)piperazin-1-yl)-4-(3-fluoroazetidin-1-yl)but-2-en-1-one] |
| 50 to 100 | 100 to 500 | C=CC(=O)N1C2CC1CN(c1ncc3ncnc(Nc4ccc(Oc5ccc6c(c5)nnn6C)c(C)c4)c3n1)C2 [Compound 60, 1-(3-(8-((3-methyl-4-((1-methyl-1H-benzo[d][1,2,3]triazol-5-yl)oxy)phenyl)amino)pyrimido[5,4-d]pyrimidin-2-yl)-3,6-diazabicyclo[3.1.1]heptan-6-yl)prop-2-en-1-one] |
| 50 to 100 | < 50 | C=CC(=O)N1CC2CC1CN2c1ncc2ncnc(Nc3ccc(Oc4ccc5c(c4)nnn5C)c(C)c3)c2n1 (centres unmarked) [Compound 61, 1-(5-(8-((3-methyl-4-((1-methyl-1H-benzo[d][1,2,3]triazol-5-yl)oxy)phenyl)amino)pyrimido[5,4-d]pyrimidin-2-yl)-2,5-diazabicyclo[2.2.1]heptan-2-yl)prop-2-en-1-one] |
| 50 to 100 | < 50 | C=CC(=O)N1CCN(c2ncc3ncnc(Nc4ccc(Oc5ccc6c(c5)nnn6C(F)F)c(C)c4)c3n2)CC1 [Compound 63, 1-(4-(8-((4-((1-(difluoromethyl)-1H-benzo[d][1,2,3]triazol-5-yl)oxy)-3-methylphenyl)amino)pyrimido[5,4-d]pyrimidin-2-yl)piperazin-1-yl)prop-2-en-1-one] |
| 100 to 500 | 100 to 500 | C=CC(=O)N1CCN(c2ncc3ncnc(Nc4ccc(Oc5ccc6c(c5)nnn6C)c(C)c4C)c3n2)CC1 [Compound 65, 1-[4-[4-[2,3-dimethyl-4-(1-methylbenzotriazol-5-yl)oxy-anilino]pyrimido[5,4-d]pyrimidin-6-yl]piperazin-1-yl] prop-2-en-1-one] |
| 50 to 100 | 100 to 500 | C=CC(=O)N1CCN(c2ncc3ncnc(Nc4cc(Cl)c(Oc5ccc6c(c5)nnn6C)cc4F)c3n2)CC1 [Compound 66, 1-(4-(8-((5-chloro-2-fluoro-4-((1-methyl-1H-benzo[d][1,2,3]triazol-5-yl)oxy)phenyl)amino)pyrimido[5,4-d]pyrimidin-2-yl)piperazin-1-yl)prop-2-en-1-one] |
| 100 to 500 | 100 to 500 | C=CC(=O)N1CCC12CN(c1ncc3ncnc(Nc4ccc(Oc5ccc6c(c5)nnn6C)c(C)c4F)c3n1)C2 [Compound 67, 1-(6-(8-((2-fluoro-3-methyl-4-((1-methyl-1H-benzo[d][1,2,3]triazol-5-yl)oxy)phenyl)amino)pyrimido[5,4-d]pyrimidin-2-yl)-1,6-diazaspiro[3.3]heptan-1-yl)prop-2-en-1-one] |
